Experimental data: patent US20060257535A1, “Milk mineral compositions for use with raw meat products” (Glanbia Nutritionals (Ireland) Limited, priority 2005, published 2006)

Columns and labels:
[1] = Hunter color redness (a*) measurement
From the text: (§1) Thiobarbituric acid assay (TBA) values and color of ground beef in 80% oxygen modified atmosphere packaging were examined. The additive compositions used for each treatment are identified in Table 3.
(§2) Co., of Troy Ohio) with a 0.60 cm plate and finely ground using a 0.32 cm plate. The MM, vitamin E and STP were manually mixed with the meat. Meat portions of about 130 grams each were placed in vacuum pouches. […] The meat samples were packaged in PVC-wrapped containers in 80% oxygen MAP (gas cylinder containing 80% oxygen and 20% carbon dioxide available from Praxair Distribution of Salt Lake City, Utah) to simulate retail packaging conditions and held for 14 days at 2° C., which is essentially the same as conventional retail packaging for ground beef. Thiobarbituric acid assay (TBA) and color readings were taken after 1, 4, 7 and 14 days.
The Hunter measurement standard uses the following scales: L=lightness, a=green and red and b=blue and yellow. The L*, a* and b* values were measured using a Hunter Lab Miniscan portable colorimeter (Reston, Va.), standardized using a white and black standard tile. The hue angle was calculated using the formula: hue angle=tan^−1(b*/a*).
Larger hue angles are associated with less red color, where hue angle=0 is red and hue angle=90 is yellow. The raw samples were scored for color, where 1=purple, 2=reddish purple, 3=bright red, 4=tan and 5=brown.

[2] = Thiobarbituric acid reactive substances (TBARS/TBA) assay of oxidative rancidity; settings: for TBA value: mean for entire 14 day study period, 80% oxygen MAP, 2° C
From the text: as §1, §2
[…]. Oxidation of fat-containing foods leads to the formation of malondialdehyde or derivates of this compound. […]. Duplicate samples (0.5 g) were mixed with 2.5 ml of solution containing 0.375% TBA (Sigma Chem. Co. of St. Louis, Mo.), 15% trichloroacetic acid (TCA) (Mallinckrodt Baker, Inc. of Paris, Ky.) and 0.25 N hydrochloric acid (HCl). The samples were heated for 10 minutes in a boiling water bath (100° C.) to develop a pink color, cooled in tap water and centrifuged (Sorvall Instruments, Model RC 5C, DuPont, Wilmington, Del.) at 6000 rpm for 10 minutes. The absorbance of the supernatant was measured spectrophotometrically (Spectronic 21D, Milton Roy, Rochester, N.Y.) at 532 nm against a blank that contained all of the reagents minus the meat. The malonaldehyde (MDA) concentration was calculated using an extinction coefficient of 1.56×10^5 M-cm^−1. The MDA concentration was converted to TBA number (mg MDA/kg sample) according to Equation (I): [formula] or to TBA number (parts per million) according to Equation (II): TBA number (ppm)=Sample A532×2.77 (II)
Samples were taken from the exterior surface and the interior portions of the meat and analyzed for rancidity using TBA analysis.

Row | Compound | red color compared with 0.25% STP and controls ([1]; 0.5% STP, after 14 days, FIG. 2b) | color stability of raw ground beef ([1]; MM more than STP) | TBA values ([2]; 0.25% STP and 0.5% STP, 7 and 14 days following packaging, FIG. 1b) | TBA values compared with control ([2]; 0.25% and 0.5% STP, 14 days following packaging) | TBA values compared with 0.25% STP treatment group ([2]; 0.5% STP, 14 days) | TBA value ([2]; STP 0.25% by weight of meat) | TBA value ([2]; STP 0.5% by weight of meat) | TBA values ([2]; higher level of STP (0.5%), after 14 days of storage) | TBA values (effectiveness compared with 0.5% STP) ([2]; lower level of STP (0.25%), after 14 days of storage) | TBA values compared with treatments with vitamin E ([2]; p<0.05) | a* values ([1]; highest level of vitamin E in ethanol, by 14 days) | red color compared with controls ([1]; vitamin E in mineral oil, after 7 days) | red color compared with control ([1]; vitamin E in oil or in ethanol, FIG. 2c, 2d) | TBA value ([2]; Vit E 50 ppm in ethanol) | TBA value ([2]; Vit E 50 ppm in mineral oil) | TBA value ([2]; Vit E 100 ppm in ethanol) | TBA value ([2]; Vit E 100 ppm in mineral oil) | TBA values compared with control ([2]; both vitamin E preparations (mineral oil, ethanol)) | antioxidant effects (TBA values) ([2]; vitamin E in mineral oil or in ethanol, FIG. 1c, 1d)
1 | O=P(O)(O)OP(=O)(O)OP(=O)(O)O [STP, sodium tripolyphosphate] | significantly more red color | dramatically increased | low TBA values | significantly lower | significantly lower | 0.65 b | 0.33 c | less than 1 | not as effective | lower | – | – | – | – | – | – | – | – | –
2 | vitamin E [Vit E] | – | – | – | – | – | – | – | – | – | – | lowest a* values | significantly less red in color than the controls | did not exhibit any more red color than control samples | 1.67 a | 1.71 a | 1.61 a | 1.74 a | not significantly different from the control | no antioxidant effects
